Reference: patent US20220151985A1, “IMMUNOSTIMULATOR AND FOOD OR BEVERAGE FOR IMMUNOSTIMULATION” (AMINO UP CO., LTD., priority 2019, published 2022)

Tests used:
[1] = tested on: peritoneal exudate cell (PEC) count; experiment: PEC count in mice after intraperitoneal administration; type: in vivo, Slc: ddY mice; settings: intraperitoneal injection of 200 μL of 10 mg/mL, 22 hours after administration, compared with control non-treated mice (FIG. 4(a))
Protocol: The test sample AU-1833C was dissolved in DMSO so as to be 50 mg/mL and then diluted five-fold with saline (product name: Otsuka normal saline, manufactured by Otsuka Pharmaceutical Co., Ltd.) to prepare a test sample solution of 10 mg/mL (including 20% DMSO). The animals used were Slc: ddY mice (female, 6-week old) and grouped as follows. The mice purchased at the age of 5 weeks were acclimated for 5 days under a condition of free access to water and feed (regular diet (product name: CE-2, manufactured by CLEA Japan, Inc.)). […] The mice after a lapse of 22 hours from administration were sacrificed under isoflurane anesthesia, 5 mL of saline was intraperitoneally injected, the abdominal area was rubbed about 10 times, and then intraperitoneal cells were collected by collecting the saline from the abdominal cavity. Using a portion of the collected saline and a Turk's solution (product name: Turk's solution, manufactured by Wako Pure Chemical Industries, Ltd.), a concentration of PEC (cells/mL), intraperitoneally exudated nucleated cells such as white blood cells, was measured. The measured PEC concentration was multiplied by the amount of saline intraperitoneally injected (5 mL) to calculate a PEC count per mouse (cells/mouse).

[2] = tested on: mouse-derived macrophage-like cell line (RAW264); experiment: TNF-α production-inducing activity in cells; type: cell-based; settings: 24 hours
Protocol: A TNF-α production-inducing activity in a mouse-derived macrophage-like cell line (RAW264, provided: RIKEN BioResource Research Center) was investigated. Using, as test samples, AU-1833C (synthesized in Example 1), lentinan (product name: Lentinan, manufactured by FUJIFILM Wako Pure Chemical Corporation) and fucoidan (product name: Fucoidan Fucus vesiculosus-derived, manufactured by Sigma-Aldrich Co. LLC), test sample solutions were prepared so that the final concentrations of the test samples were 50, 100, and 200 μg/mL. First, all test samples were dissolved in dimethylsulfoxide (DMSO) so as to have a 1,000-fold concentration of the final concentration, and then 100-fold dilution was carried out with deionized water thereby to prepare test sample solutions having a 10-fold concentration (including 1% DMSO) of the final concentrations. […] A ratio of a TNF-α concentration in each test sample group relative to a TNF-α concentration in the non-treated group was calculated from the measured TNF-α concentrations and defined as the TNF-α production-inducing activity.

[3] = tested on: TNF-α production of PEC; experiment: Amount of induced TNF-α production of PEC from treated mice when treated with LPS; type: in vivo, Slc: ddY mice; settings: PEC collected 22 hours after intraperitoneal administration, LPS 100 ng/mL for 3 hours
Protocol: The test sample AU-1833C was dissolved in DMSO so as to be 50 mg/mL and then diluted five-fold with saline (product name: Otsuka normal saline, manufactured by Otsuka Pharmaceutical Co., Ltd.) to prepare a test sample solution of 10 mg/mL (including 20% DMSO).
The animals used were Slc: ddY mice (female, 6-week old) and grouped as follows.
The mice purchased at the age of 5 weeks were acclimated for 5 days under a condition of free access to water and feed (regular diet (product name: CE-2, manufactured by CLEA Japan, Inc.)). Body weights of the mice after acclimation at the age of 6 weeks were measured and the mice were grouped based on the measured values so that there was no difference in the body weight among the groups. 200 μL of the test sample solutions or 20% DMSO saline as the non-treated group was respectively administered to the mice by intraperitoneal injection. […] Using a portion of the collected saline and a Turk's solution (product name: Turk's solution, manufactured by Wako Pure Chemical Industries, Ltd.), a concentration of PEC (cells/mL), intraperitoneally exudated nucleated cells such as white blood cells, was measured. The measured PEC concentration was multiplied by the amount of saline intraperitoneally injected (5 mL) to calculate a PEC count per mouse (cells/mouse). […]

Structure (SMILES): O=C1OCCCCCCOC(=O)c2ccccc2C(=O)OCCCCCCOC(=O)c2ccccc21 [AU-1833C, 7,8,9,10,11,12,19,20,21,22,23,24-dodecahydro-dibenzo[1,6,13,18]-tetraoxacyclooctadecine-2,5,14,17-tetrone]
- PEC counts [1]: significantly higher PEC counts
- TNF-α production-inducing activity (ratio of TNF-α concentration relative to non-treated group) ([2]; RAW264 cells, 50, 100 and 200 μg/mL, ELISA, compared with control non-treated group (FIG. 3)): significantly higher than that of the control non-treated group
- TNF-α production-inducing activity compared with lentinan and fucoidan at the same concentration ([2]; RAW264 cells, each of 50, 100 and 200 μg/mL, ELISA (FIG. 3)): significantly higher than those of lentinan and fucoidan at the same concentration
- TNF-α production amount per cell in PEC ([3]; compared with control non-treated mice (FIG. 4(b))): significantly higher TNF-α production amount per cell in PEC
- PEC-derived TNF-α production amount per mouse ([3]; compared with control non-treated mice (FIG. 4(c))): significantly higher PEC-derived TNF-α production amount per mouse
